# Laboratory results taken from US8431131B2, “CD38 and obesity” (Mayo Foundation for Medical Education and Research, priority 2007, dated 2013).
# How the values were obtained:
# [1] = tested on: Ca2+ release induced by oxytocin; test: Oxytocin-induced Ca2+ release in smooth muscle cells (control experiments); assay type: cell-based, mice; details: same conditions as p53 experiment
# acetylated P53 = test: Acetylated p53 immuno-staining in cultured smooth muscle cells (measure of endogenous SIRT activity); assay type: cell-based, mice; details: 100 μM, four to six hours
# Procedure: (§1) FIG. 8. The effect of resveratrol and sirtinol upon the cADPR system. In A, ADP ribosyl cyclase activity was measured in liver plasma membranes using NGD as a substrate. Mice were treated with 100 μM of a test drug: DTT (dithiothreitol), resverastrol (Resv), or sirtinol. The control mice received no addition. Similar results were obtained using purified Aplysia ADPribosyl cyclase. In B, cADPR-induced Ca^2+ was measured in sea urchin egg homogenates. Ca^2+ was induced by 100 nM of cADPR with no further additions, or with 1 minute pre-incubation of 100 μM of the testing drugs 8-Br-cADPR (8-Br), resveratrol (Resv), or sirtinol. In C, experiments were conducted in smooth muscle cells in culture as described in FIG. 1E. Four to six hours before fixation and staining with acetylated P53 antibody, cells were treated with 100 μM of the testing drugs. 3-Deaza-cADPR is a cell permeable cADPR agonist. […] All experiments were repeated three to four times. The asterisk denotes significant differences between control and treatment.
# For experiments, cells were made quiescent by replacing the growth medium with SmBM without serum or growth factors. Cell medium was again replaced with SmBM containing testing agents solubilized in 0.1% DMSO or water added to the final concentrations.
# Smooth muscle cells were obtained as described above. Cells were fixed in suspension in PBS plus 2% paraformaldehyde for 20 minutes at room temperature with constant agitation, and cells were washed three times for 10 minutes with TBS-Triton X-100 (0.1%). After that, cells were incubated in blocking buffer (TBS, 30 mM glycine, and 5% BSA) for 60 minutes and incubated with anti-acetylated p53 rabbit polyclonal antibody (1:1000) (Abcam, Inc.; Cambridge, Mass.) overnight at 4° C. with constant agitation. […]
# Laser confocal images were obtained using the Olympus Fluoview laser scanning confocal microscopy, with objective Olympus UplanApo oil, 100×, 1.35 numerical aperture. Nuclei were excited at 543 nm, and their emission recorded at 570 nm.
# [2] = tested on: high fat diet-induced obesity; test: High fat diet-induced obesity in mice; assay type: in vivo; details: 30 mg/kg/day intraperitoneal, two weeks of HFD
# Procedure: FIG. 9. […] Wild type mice were treated with resveratrol (a SIRT stimulator), and CD38 (−/−) mice were treated with Sirtinol (a SIRT antagonist) during 2 weeks of high fat diet. […] The number of animals in each group was between four and six.
# Metabolic Studies and Diet At one year of age, CD38 (−/−) mice were placed on either a normal caloric diet (NCD; diet number 3807, KLIBA-NAFAG) or an HFD (AIN-93G modified to provide 60% of calories from fat, Researchdiets) ad libitum and monitored for six weeks. Body weight was recorded weekly, and food intake was measured for seven consecutive days. Oxygen consumption and energy expenditure (ER) measurements were performed in mice fed HFD for four weeks, and quantification of blood metabolites were performed. For the experiments using resveratrol and sirtinol, the HFD was supplemented with daily intraperitoneal injections of 30 mg/kg of drug (or vehicle) for two weeks. Cultured Smooth Muscle Cells from Wild-Type and CD38 Knockout Mice
# Wild type mice were treated with 30 mg/kg/day of resveratrol, and CD38 (−/−) were treated with the same dose of sirtinol to determine the role of the SIRT enzymes upon high fat diet-induced obesity.
# ADP ribosyl cyclase = ADP ribosyl cyclase activity (cADPR synthesis) in liver plasma membranes using NGD as substrate; assay type: biochemical, mice; details: 100 μM test drug
# Procedure: as §1
# (§2) ADP-ribosyl cyclase polypeptide activity was measured using the NGD technique as described herein, and NADase polypeptide activity was determined using etheno-NAD as described elsewhere (Johnson et al., Diabetes, 55:2737-2746 (2006)). […] Activity was determined by measuring the change in fluorescence over time at 300 nm excitation and 410 nm emission.
# SIRT1 = molecular target: T1, SIRT1 (Homo sapiens, UniProt Q96EB6); test: Effect of CD38 metabolites on SIRT1 activity; assay type: biochemical
# T1 construct: purchased Biomol International, LP
# T1 sequence (Q96EB6 1-747): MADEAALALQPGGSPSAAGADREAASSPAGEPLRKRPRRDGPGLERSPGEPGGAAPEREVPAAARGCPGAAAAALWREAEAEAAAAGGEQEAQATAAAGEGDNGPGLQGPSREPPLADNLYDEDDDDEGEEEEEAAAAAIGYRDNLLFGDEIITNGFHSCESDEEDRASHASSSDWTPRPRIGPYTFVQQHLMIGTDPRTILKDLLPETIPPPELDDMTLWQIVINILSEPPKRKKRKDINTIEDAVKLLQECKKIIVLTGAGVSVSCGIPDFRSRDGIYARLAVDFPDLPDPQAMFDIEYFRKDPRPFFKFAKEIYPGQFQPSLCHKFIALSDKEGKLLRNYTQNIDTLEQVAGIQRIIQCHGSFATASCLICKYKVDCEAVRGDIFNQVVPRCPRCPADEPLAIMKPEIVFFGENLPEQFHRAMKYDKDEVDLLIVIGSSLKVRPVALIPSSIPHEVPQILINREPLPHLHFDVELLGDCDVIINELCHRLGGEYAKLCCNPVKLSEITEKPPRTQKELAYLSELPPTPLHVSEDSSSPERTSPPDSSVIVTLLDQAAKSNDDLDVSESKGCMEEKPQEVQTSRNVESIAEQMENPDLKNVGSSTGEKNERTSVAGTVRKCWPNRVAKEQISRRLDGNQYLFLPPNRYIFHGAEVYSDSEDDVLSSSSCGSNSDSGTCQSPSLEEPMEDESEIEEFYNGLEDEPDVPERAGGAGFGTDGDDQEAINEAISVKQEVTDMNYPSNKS
# Procedure: SIRT1 polypeptide activity was determined using the SIRT1 Fluorimetric Kit (Biomol International, LP; Plymouth Meeting, Pa.) according to the manufacturer's instructions. Briefly, nuclei prepared from wild-type or CD38 knockout mice (1 μg protein/well) were incubated in 40 mM Tris-HCl (pH 7.4) containing human recombinant SIRT1 (1 U/assay), 500 μM NAD+, and 100 μM Flour de Lys-SIRT1 substrate for 30 minutes at 37° C. Following incubation, the reaction was terminated by addition of a solution containing Flour de Lys Developer and 2 mM nicotinamide. Values were determined by reading fluorescence on a fluorimetric plate reader (Spectramax Gemini XPS; Molecular Devices; Sunnyvale, Calif.) with an excitation wavelength of 360 nm and emitted wavelength of 460 nm. Calculation of net fluorescence expressed as percent of control included the subtraction of a blank consisting of buffer containing no NAD+. Endogenous SIRT polypeptide activity was determined as described above with the exception that no recombinant SIRT enzyme was added to the reaction mixture and that the nuclear preparations were sonicated before the assay. The data were expressed as NAD stimulated deacetylation.
# CD38 metabolites were tested for an effect on SIRT1 activity.
# [3] = tested on: cADPR-induced Ca2+ release; test: cADPR-induced Ca2+ release in sea urchin egg homogenates; assay type: biochemical, Lytechinus pictus; details: 100 nM cADPR, 1 minute pre-incubation with 100 μM drug
# Procedure: as §1, with “Similar results were obtained using purified Aplysia ADPribosyl cyclase.” left out, “treatment. cADPR-induced Ca^2+ release was determined in sea urchin egg homogenates using fluo-3 as a Ca^2+ indicator as described elsewhere (Chini, Braz. J. Med. Biol. Res., 35:543-547 (2002)). […] Fluo-3 fluorescence was monitored at 490 nm excitation and 535 nm emission in a 250-μL cuvette, held at 17° C. with a circulating water bath and continuously mixed with a magnetic stirring bar, in a Hitachi spectrofluorometer (F-2000).” for “treatment.”
# CD38 polypeptide = molecular target: T2, CD38 polypeptide (Homo sapiens, UniProt P28907); test: CD38 NADase activity assay with etheno-NAD as substrate; assay type: biochemical; details: 1 mM, 10 minutes incubation
# T2 sequence (P28907 1-300): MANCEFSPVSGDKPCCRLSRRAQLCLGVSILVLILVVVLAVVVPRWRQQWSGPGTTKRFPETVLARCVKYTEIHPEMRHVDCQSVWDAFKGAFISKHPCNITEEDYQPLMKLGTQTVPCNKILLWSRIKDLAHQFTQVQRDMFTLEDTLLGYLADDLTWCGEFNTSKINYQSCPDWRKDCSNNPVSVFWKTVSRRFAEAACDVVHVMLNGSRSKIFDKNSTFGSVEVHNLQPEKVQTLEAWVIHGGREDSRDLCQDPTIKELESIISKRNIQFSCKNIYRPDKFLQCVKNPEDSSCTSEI
# Excerpt: Agents that can inhibit CD38 expression or activity in cells can be identified by screening candidate agents (e.g., from synthetic compound libraries and/or natural product libraries). Candidate agents can be obtained from any commercial source and can be chemically synthesized using methods that are known to those of skill in the art. Candidate agents can be screened and characterized using in vitro cell-based assays, cell free assays, and/or in vivo animal models. For example, a CD38 NADase assay can be used to identify CD38 antagonists. NADase activity can be determined using etheno-NAD. Enzyme preparations (e.g., purified CD38) can be incubated in a medium containing, for example, 0.2 mM […], 0.25 M sucrose, and 40 mM Tris-HCl (pH 7.2) at 37° C. NADase activity can be determined by measuring the change in fluorescence over time at, for example, 300 nm excitation and 410 nm emission. Candidate agents can be added to the CD38 assay, and a decrease of the NADase activity compared to control can be determined. […]
# as §2, with “emission. […]” for “emission.”
molecule,measurement,setting,value
N=c1c2nc(Br)n3c2ncn1C1OC(COP(=O)(O)OP(=O)(O)OCC2OC3C(O)C2O)C(O)C1O (centres unmarked) [8-Br-cADPR],effect on oxytocin-induced Ca2+ release,[1],blocked Ca^2+ release induced by oxytocin
same,levels of p53 acetylation in cells,acetylated P53; smooth muscle cells,neither the cell permeable cADPR antagonist (8-br-cADPR) nor the cADPR agonist (3-deaza-cADPR) had any effect
CC(NC(=O)c1ccccc1/N=C/c1c(O)ccc2ccccc12)c1ccccc1 (centres unmarked) [sirtinol],protective effect of CD38 knock out upon high fat diet-induced obesity,[2]; CD38 (−/−) mice,abrogated
same,weight gain compared with vehicle treated CD38 (−/−) mice,[2]; CD38 (−/−) mice,gained a statistically significant amount of weight
same,effect upon cADPR synthesis (ADP ribosyl cyclase activity),ADP ribosyl cyclase,nor sirtinol (a SIRT inhibitor) exhibited any effect
same,acetylated p53 level,acetylated P53; smooth muscle cells from CD38 (−/−) mice,increased acetylated p53
NC(=O)c1ccc[n+]([C@@H]2O[C@H](COP(=O)([O-])OP(=O)(O)OC[C@H]3O[C@@H](n4cnc5c(N)ncnc54)[C@H](O)[C@@H]3O)[C@@H](O)[C@H]2O)c1 [NAD],effect on SIRT1 activity,SIRT1,exhibited an effect
Oc1ccc(C=Cc2cc(O)cc(O)c2)cc1 [resveratrol],protection against high fat diet-induced obesity,[2]; wild type mice,protected against high fat induced obesity
same,effect upon cADPR synthesis (ADP ribosyl cyclase activity),ADP ribosyl cyclase,Neither resveratrol (a SIRT activator) nor sirtinol (a SIRT inhibitor) exhibited any effect
same,effect upon cADPR-induced Ca2+ release,[3],Neither resveratrol (a SIRT activator) nor sirtinol (a SIRT inhibitor) exhibited any effect
same,acetylated p53 level,acetylated P53; smooth muscle cells from wild type mice,decreased acetylated p53
3-Deaza-cADPR,effect on oxytocin-induced Ca2+ release,[1],increased oxytocin effect
NC(=O)c1cccnc1 [nicotinamide],effect on SIRT1 activity,SIRT1,exhibited an effect
same,CD38 NADase activity,CD38 polypeptide,substantial inhibition
